{"source": "PubChem BioAssay (NCI)", "assay_in_all_cases": "NCI tumour cell line growth inhibition, 48 h", "key": {"DLD-1 colon": {"system": "DLD-1 colon"}, "DMS 114 small cell lung": {"system": "DMS 114 small cell lung"}, "DMS 273 small cell lung": {"system": "DMS 273 small cell lung"}, "HOP-18 NSCLC": {"system": "HOP-18 NSCLC"}, "KM20L2 colon": {"system": "KM20L2 colon"}, "M19-MEL melanoma": {"system": "M19-MEL melanoma"}, "P388 leukemia": {"system": "P388 leukemia"}, "P388/ADR leukemia": {"system": "P388/ADR leukemia"}, "SN12K1 renal": {"system": "SN12K1 renal"}, "MDA-MB-435": {"system": "MDA-MB-435"}, "MDA-N": {"system": "MDA-N"}, "PC-3 prostate": {"system": "PC-3 prostate"}, "SR leukemia": {"system": "SR leukemia"}, "T-47D breast": {"system": "T-47D breast"}, "LXFL 529 NSCLC": {"system": "LXFL 529 NSCLC"}, "RXF-631 renal": {"system": "RXF-631 renal"}}, "note": "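Protocol summary: plate cells (96-well), add compound at 5 concentrations, incubate 48 h, interpolate endpoints linearly. GI50: concentration for 50% inhibition of growth. At the TGI there is no net growth.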", "data": [{"compound": "CN(C)CCNC(=O)c1cccc2c(=O)c3ccccc3oc12", "values": [{"measurement": "TGI", "setting": "DLD-1 colon", "result": "> 100", "unit": "µM"}, {"measurement": "TGI", "setting": "DMS 114 small cell lung", "result": "> 69.8", "unit": "µM"}, {"measurement": "TGI", "setting": "DMS 273 small cell lung", "result": "> 91.2", "unit": "µM"}, {"measurement": "TGI", "setting": "HOP-18 NSCLC", "result": "> 100", "unit": "µM"}, {"measurement": "TGI", "setting": "KM20L2 colon", "result": "> 100", "unit": "µM"}, {"measurement": "TGI", "setting": "M19-MEL melanoma", "result": 56.7, "unit": "µM"}, {"measurement": "TGI", "setting": "P388 leukemia", "result": 52.2, "unit": "µM"}, {"measurement": "TGI", "setting": "P388/ADR leukemia", "result": 73.2, "unit": "µM"}, {"measurement": "TGI", "setting": "SN12K1 renal", "result": 47.5, "unit": "µM"}]}, {"compound": "CC(=O)C(C(c1ccccc1)N1CCOCC1)N1CCOCC1", "note": "(stereo not drawn)", "values": [{"measurement": "TGI", "setting": "MDA-MB-435", "result": "> 100", "unit": "µM"}, {"measurement": "TGI", "setting": "MDA-N", "result": "> 100", "unit": "µM"}, {"measurement": "TGI", "setting": "PC-3 prostate", "result": "> 100", "unit": "µM"}, {"measurement": "TGI", "setting": "SR leukemia", "result": "> 100", "unit": "µM"}, {"measurement": "TGI", "setting": "T-47D breast", "result": "> 100", "unit": "µM"}]}, {"compound": "CC1(C)[C@@H]2CC[C@]1(C)[C@H](OC(=O)CSC#N)C2", "values": [{"measurement": "TGI", "setting": "MDA-MB-435", "result": "> 100", "unit": "µM"}, {"measurement": "TGI", "setting": "MDA-N", "result": "> 100", "unit": "µM"}, {"measurement": "TGI", "setting": "PC-3 prostate", "result": "> 100", "unit": "µM"}, {"measurement": "TGI", "setting": "T-47D breast", "result": "> 100", "unit": "µM"}]}, {"compound": "COC1OC(CS(=O)(=O)O)C(O)C(O)C1O", "note": "(stereo not drawn)", "values": [{"measurement": "TGI", "setting": "MDA-MB-435", "result": "> 100", "unit": "µM"}, {"measurement": "TGI", "setting": "MDA-N", "result": "> 100", "unit": "µM"}, {"measurement": "TGI", "setting": "PC-3 prostate", "result": "> 100", "unit": "µM"}, {"measurement": "TGI", "setting": "SR leukemia", "result": "> 100", "unit": "µM"}, {"measurement": "TGI", "setting": "T-47D breast", "result": "> 100", "unit": "µM"}]}, {"compound": "CC1=C2C(O)C(C(C)C(=O)N(C)C)CCC2(C)C=CC1=O", "note": "(stereo not drawn)", "values": [{"measurement": "TGI", "setting": "DLD-1 colon", "result": "> 100", "unit": "µM"}, {"measurement": "TGI", "setting": "DMS 114 small cell lung", "result": "> 100", "unit": "µM"}, {"measurement": "TGI", "setting": "DMS 273 small cell lung", "result": "> 100", "unit": "µM"}, {"measurement": "TGI", "setting": "HOP-18 NSCLC", "result": "> 100", "unit": "µM"}, {"measurement": "TGI", "setting": "KM20L2 colon", "result": "> 100", "unit": "µM"}, {"measurement": "TGI", "setting": "M19-MEL melanoma", "result": "> 100", "unit": "µM"}, {"measurement": "TGI", "setting": "P388 leukemia", "result": "> 100", "unit": "µM"}, {"measurement": "TGI", "setting": "P388/ADR leukemia", "result": "> 100", "unit": "µM"}, {"measurement": "TGI", "setting": "SN12K1 renal", "result": "> 100", "unit": "µM"}]}, {"compound": "CCC1C[N+]23CCc4c([nH]c5ccccc45)C2CC1CC3", "note": "(stereo not drawn)", "values": [{"measurement": "TGI", "setting": "DLD-1 colon", "result": "> 100", "unit": "µM"}, {"measurement": "TGI", "setting": "DMS 114 small cell lung", "result": "> 100", "unit": "µM"}, {"measurement": "TGI", "setting": "DMS 273 small cell lung", "result": "> 100", "unit": "µM"}, {"measurement": "TGI", "setting": "KM20L2 colon", "result": "> 100", "unit": "µM"}, {"measurement": "TGI", "setting": "LXFL 529 NSCLC", "result": "> 100", "unit": "µM"}, {"measurement": "TGI", "setting": "M19-MEL melanoma", "result": "> 100", "unit": "µM"}, {"measurement": "TGI", "setting": "SR leukemia", "result": "> 100", "unit": "µM"}]}, {"compound": "CCCC(C)c1ccc(OCCCCCCN2CCNCC2)cc1", "note": "(stereo not drawn)", "values": [{"measurement": "GI50", "setting": "MDA-MB-435", "result": 1.7, "unit": "µM"}, {"measurement": "TGI", "setting": "MDA-MB-435", "result": 3.22, "unit": "µM"}, {"measurement": "GI50", "setting": "PC-3 prostate", "result": 2.02, "unit": "µM"}, {"measurement": "TGI", "setting": "PC-3 prostate", "result": 4.94, "unit": "µM"}, {"measurement": "GI50", "setting": "SR leukemia", "result": 1.7, "unit": "µM"}, {"measurement": "TGI", "setting": "SR leukemia", "result": 4.21, "unit": "µM"}, {"measurement": "GI50", "setting": "T-47D breast", "result": 1.71, "unit": "µM"}, {"measurement": "TGI", "setting": "T-47D breast", "result": 3.72, "unit": "µM"}]}, {"compound": "Cc1ccc(S(=O)(=O)Nc2cccc3c(=O)[nH]cnc23)cc1", "values": [{"measurement": "TGI", "setting": "DMS 114 small cell lung", "result": "> 100", "unit": "µM"}, {"measurement": "TGI", "setting": "DMS 273 small cell lung", "result": "> 100", "unit": "µM"}, {"measurement": "TGI", "setting": "HOP-18 NSCLC", "result": "> 100", "unit": "µM"}, {"measurement": "TGI", "setting": "KM20L2 colon", "result": "> 100", "unit": "µM"}, {"measurement": "TGI", "setting": "LXFL 529 NSCLC", "result": "> 100", "unit": "µM"}, {"measurement": "TGI", "setting": "M19-MEL melanoma", "result": "> 100", "unit": "µM"}, {"measurement": "TGI", "setting": "SR leukemia", "result": "> 100", "unit": "µM"}]}, {"compound": "CCOP(=Nc1ccc(N(C)C)cc1)(OCC)OCC", "values": [{"measurement": "TGI", "setting": "MDA-MB-435", "result": "> 100", "unit": "µM"}, {"measurement": "TGI", "setting": "MDA-N", "result": "> 100", "unit": "µM"}, {"measurement": "TGI", "setting": "PC-3 prostate", "result": "> 100", "unit": "µM"}]}, {"compound": "O=C(c1ccccc1)c1ccc2n[se]nc2c1", "values": [{"measurement": "TGI", "setting": "DLD-1 colon", "result": "> 100", "unit": "µM"}, {"measurement": "TGI", "setting": "DMS 114 small cell lung", "result": 60, "unit": "µM"}, {"measurement": "TGI", "setting": "DMS 273 small cell lung", "result": "> 100", "unit": "µM"}, {"measurement": "TGI", "setting": "KM20L2 colon", "result": "> 100", "unit": "µM"}, {"measurement": "TGI", "setting": "LXFL 529 NSCLC", "result": "> 100", "unit": "µM"}, {"measurement": "TGI", "setting": "RXF-631 renal", "result": "> 100", "unit": "µM"}]}]}
